# Experimental data as given in patent US20250041245A1, “ENDOXIFEN FOR TREATMENT OF CANCERS” (Atossa Therapeutics, Inc., priority 2021, published 2025).
# Several values for one entry are separate records, joined by “and”; a condition that tells them apart may be missing. Identical values can stand only once. Entries after “also recorded” stand apart in the source; their conditions may differ.
# Experiments:
# Format in all cases: cell-based, human
# Design in all cases: key to Personalization Category: Personalization categories range from High, Good, Moderate, Low, to None; Personalization categories range from High, Good, Moderate, Low, to None; Personalization categories range from High, Good, Moderate, Low, to None; Personalization categories range from High, Good, Moderate, Low, to None; Personalization categories range from High, Good, Moderate, Low, to None; key to Sensitivity Category: Sensitivity categories range from High, Good, Moderate, Low, to None; Sensitivity categories range from High, Good, Moderate, Low, to None; Sensitivity categories range from High, Good, Moderate, Low, to None; Sensitivity categories range from High, Good, Moderate, Low, to None; Sensitivity categories range from High, Good, Moderate, Low, to None; AUC: unit not given beside the values
# [1] = tested on: patient-derived tumor organoids (PDTOs), colorectal cancer; assay: Endoxifen screen in PDTOs: colorectal cancer; settings: each line one patient sample
# Description: (§1) This example describes screening endoxifen in patient-derived tumor organoids. Endoxifen was tested as a single agent on tumor organoids derived from patients diagnosed with various cancer types using a personalized cancer treatment screening assay (PARIS© Test, SEngine Precision Medicine). The screen utilized patient-derived tumor organoids (PDTOs) along with high-throughput drug screening and machine learning-guided data analysis to quantify the efficacy of endoxifen against samples derived from individual patients diagnosed with various cancer types. PDTOs are self-organizing, three-dimensional organoid structures that recapitulate structural, functional, and genomic aspects of in vivo organs. The PDTOs were grown in culture from patient tumor biopsy samples.
# (§2) Fresh patient biopsy samples received following surgery were cleaned and purified. Immune cells (e.g., lymphocytes, blood cells), cancer-associated fibroblasts, and other non-tumor cells were removed to establish pure PDTOs for endoxifen testing. The tumor organoids were grown and expanded by supplying organ- and patient-specific growth factors and nutrients. The PDTOs were treated with increasing concentrations of endoxifen ranging from about 30 nM to about 10 μM, and the drug response was measured using a luminescence readout. A lower luminescence was indicative of a stronger drug response.
# (§3) The results were analyzed using a “SEngine Precision Medicine” (SPM) scoring system to assess the sensitivity and personalization of each tumor organoid to endoxifen. The SPM score correlates with clinical outcomes, such that a higher SPM score for a specific PDTO-drug combination predicts a more favorable clinical outcome following treatment of the corresponding patient with the tested drug.
# (§4) This example describes testing endoxifen efficacy against 17 distinct cancer types in patient-derived tumor organoids (PDTOs). Screening of PDTOs was performed as described in EXAMPLE 1. For each PDTO sample, the drug response was measured using a luminescent readout over a range of endoxifen concentrations. The drug response was evaluated based on the area under the fitted dose response curve (AUC) and the SPM scoring system. AUC values were normalized for each PDTO. Briefly, data points at each drug concentration were first normalized to a negative control, then a dose response drug curve was approximated using a four-parameter logistic model fitted to the normalized data points. The area under the curve was calculated from the normalized curve. Normalization allowed for comparison of AUC values between patient samples. The SPM scores were based on machine learning models that incorporate values for how well the drug kill patient cells (sensitivity metric), the relative drug responses of a patient to all other patients in a sample database (personalization metric), and knowledge of clinical outcomes for patients that had been evaluated with the personalized cancer screening assay (PARIS® Test, SEngine Precision Medicine).
# The SPM scoring system evaluated whether a PDTO was unresponsive or responsive to endoxifen and the degree of drug response for PDTOs that were responsive to endoxifen. The SPM scoring system generated metrics an SPM score, predictive of clinical outcome, overall drug response (response category), drug sensitivity (sensitivity category), and drug personalization (personalization category). SPM scores ranged from 1-15, corresponding to the following drug response categories: no response (SPM 1-8), low response (SPM 9), moderate response (SPM 10-11), good response (SPM 12-13), and exceptional response (SPM 14-15). […] Moderate to good drug responses (SPM 10-13) may indicate that a drug has clinical relevance, possibly in combination with other drugs. The sensitivity category was determined from the sensitivity metric and is a measure of overall cell death of a patient's cells in response to endoxifen at six concentrations. […]
# [2] = tested on: patient-derived tumor organoids (PDTOs), myxofibrosarcoma; assay: Endoxifen screen in PDTOs: myxofibrosarcoma
# Description: as §1, §2, §3, §4
# (§5) The SPM scoring system evaluated whether a PDTO was unresponsive or responsive to endoxifen and the degree of drug response for PDTOs that were responsive to endoxifen. […] The sensitivity category was determined from the sensitivity metric and is a measure of overall cell death of a patient's cells in response to endoxifen at six concentrations. […]
# [3] = tested on: patient-derived tumor organoids (PDTOs), leiomyosarcoma; assay: Endoxifen screen in PDTOs: leiomyosarcoma; settings: each line one patient sample
# Description: as §1, §2, §3, §4, §5
# [4] = normalized area under fitted dose response curve
smiles,measurement,setting,value
"CC/C(=C(\c1ccc(O)cc1)c1ccc(OCCNC)cc1)c1ccccc1 [Endoxifen, 4-hydroxy-N-desmethyltamoxifen]",Personalization Category,[1],None and Low and Good and Moderate
same,Response Category,[1],None (no response (SPM 1-8)); also recorded: Low (low response (SPM 9)); also recorded: Moderate (moderate response (SPM 10-11))
same,Sensitivity Category,[1],None and Low
same,IC50,[1]; four-parameter logistic fit,7.16 µM and 9.23 µM and 7.23 µM and 5.61 µM and 10 µM and 5.65 µM and 4.72 µM and 3.62 µM and 8.86 µM and 5.67 µM and 6.74 µM and 9.61 µM and 9.09 µM
same,AUC,[1]; [4],0.9517 and 0.9919 and 1.0338 and 0.9902 and 1.0377 and 0.9305 and 0.8841 and 0.8215 and 0.9346 and 0.8357 and 0.8866 and 0.9755 and 0.9804 and 0.9752 and 1.0467
same,SPM Score,[1]; score range 1-15,1 (9×) and 3 and 5 and 9 (2×) and 11 and 10
same,IC50,"[2]; Homo sapiens, patient 1, four-parameter logistic fit",7.25 µM
same,Personalization Category,[2]; patient 1,None
same,Sensitivity Category,[2]; patient 1,None
same,AUC,"[2]; patient 1, normalized area under fitted dose response curve",0.9384
same,SPM Score,"[2]; patient 1, score range 1-15",1
same,Personalization Category,[3],None
same,Response Category,[3],None (no response (SPM 1-8))
same,Sensitivity Category,[3],None
same,AUC,[3]; [4],0.9719 and 1.0448 and 1.0001
same,SPM Score,[3]; score range 1-15,1
